Measurements reported in PubChem BioAssay (NCI).
Several values for one entry are separate records, joined by “and”; a condition that tells them apart may be missing. Equal values may be shown once.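 Growth conditions: 96-well plates. Treatment: test compound, 48 hours, 5 concentrations. Analysis: linear interpolation between bracketing concentrations; unreached endpoints set to highest concentration. Here, GI50 denotes the concentration required for 50% inhibition of growth. TGI marks complete inhibition of growth.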

Key:
Assay in all cases: inhibition of tumour cell growth, NCI panel, 48 h
HL-60(TB) leukemia = system: HL-60(TB) leukemia
IGROV1 ovarian = system: IGROV1 ovarian
RPMI-8226 leukemia = system: RPMI-8226 leukemia
HCT-116 colon = system: HCT-116 colon
SF-268 CNS = system: SF-268 CNS
SNB-75 CNS = system: SNB-75 CNS
SF-295 CNS = system: SF-295 CNS
SK-OV-3 ovarian = system: SK-OV-3 ovarian
SW-620 colon = system: SW-620 colon
HS 578T breast = system: HS 578T breast

Compound | TGI (HL-60(TB) leukemia) [µM] | TGI (IGROV1 ovarian) [µM] | TGI (RPMI-8226 leukemia) [µM] | TGI (HCT-116 colon) [µM] | TGI (SF-268 CNS) [µM] | TGI (SNB-75 CNS) [µM] | TGI (SF-295 CNS) [µM] | TGI (SK-OV-3 ovarian) [µM] | TGI (SW-620 colon) [µM] | TGI (HS 578T breast) [µM] | GI50 (IGROV1 ovarian) | GI50 (RPMI-8226 leukemia) [µM] | GI50 (HL-60(TB) leukemia) [µM] | GI50 (SF-295 CNS) [µM]
CC(C)c1cccc(C(C)C)c1NC(=S)Nc1ccccc1 | 32.4 | > 100 | > 100 | > 100 | > 100 | > 100 | > 100 | > 100 | > 100 |  |  |  |  | 
CC(=O)Nc1ccccc1S(=O)(=O)c1c(-c2c(C)c(Cl)c(C)c(Cl)c2C)noc1C |  | > 100 | > 100 | > 100 | > 100 | 34.6 | > 100 | > 100 | > 100 | 73.7 |  |  |  | 
COc1ccc(-n2c(-c3ccccc3)cc(-c3cccs3)c2-c2cccs2)cc1 |  | > 100 | > 100 | > 100 | > 100 | > 100 | > 100 | > 100 | > 100 | > 100 |  |  |  | 
COc1cc(-c2c(C(C)=O)c(-c3ccccc3)n(C3OC(COC(C)=O)C(OC(C)=O)C(OC(C)=O)C3OC(C)=O)c(=S)c2C#N)ccc1O (centres undefined) |  | > 100 | > 100 | > 100 | > 100 |  | > 100 |  | > 100 | > 100 | 31.8 µM and > 100 µM | 34.5 |  | 
[N-]=[N+]=NC1=C(N=[N+]=[N-])c2cccc3cccc(c23)C1=O |  | > 100 | > 100 | > 100 | > 100 | > 100 | > 100 | > 100 | > 100 | > 100 |  |  |  | 
CSc1nc(NC2OC(CO)C(O)C(O)C2O)c(N)c(=O)n1C (centres undefined) | > 100 | > 100 | > 100 | > 100 | > 100 | > 100 | > 100 | > 100 | > 100 |  |  |  |  | 
COc1cc(O)c2c(=O)cc(C3(OC(C)=O)C=CC(OC4OC(CO)C(O)C(O)C4O)C=C3)oc2c1 (centres undefined) | > 100 | > 100 | > 100 | > 100 |  | > 100 | > 100 | > 100 | > 100 |  |  |  |  | 
COc1ccc2[nH]c3c(c2c1)CCc1ccccc1-3 |  | > 100 |  | > 100 | > 100 | 75.2 | > 100 | > 100 | > 100 | 37.4 |  |  |  | 
N=C1SCCS1 | > 100 | > 100 | > 100 | > 100 | > 100 | > 100 | > 100 | > 100 | > 100 |  |  |  |  | 
O=[N+]([O-])c1ccc2nc(/C=C(\O)c3ccccc3)c(/C=C(\O)c3ccc(Cl)cc3)nc2c1 |  | > 100 |  | > 100 | > 100 | 64.9 | > 100 | > 100 |  |  |  |  |  | 
Cc1[nH]c2ncn(N)c(=N)c2c1Cc1ccccc1 | > 100 | > 100 | > 100 | > 100 |  | > 100 | > 100 | > 100 | > 100 |  |  |  |  | 
CCCNc1c(Cl)cc(Cl)c2[nH]c3ccccc3c(=O)c12 | 47.6 | > 100 | > 100 | > 100 |  | > 100 | > 100 | > 100 | > 100 |  |  |  |  | 
CCOC(=O)c1c(C)n(-c2ccc(C)cc2)c2c1cc(O)c1[nH]c3c(c12)CCCC3 | 51.7 | 33.9 | 24.8 | 92.6 | 55.2 | 12.4 | 65.2 | > 100 | 39 |  |  |  |  | 
COC(=O)C1CCCCCCCCCCC12SCCCS2 (centres undefined) |  | 39.1 |  | 30.2 | 56.5 | 81.2 | 39 | > 100 | 81.9 | 90.5 |  |  |  | 
O=c1[nH]nc(Cc2ccc(Cl)cc2)n1Nc1ccccc1 |  | > 100 |  | > 100 |  | > 100 | > 100 |  | > 100 | > 100 |  |  |  | 
COc1ccc2c(c1)OCC1Cc3cccc(OC)c3OC21 (centres undefined) |  | > 100 | > 100 | > 100 | > 100 |  | > 100 | > 100 | > 100 |  |  |  |  | 
COc1cccc(/C=N/[N-]C(N)=O)c1[O-].[OH3+].[Zn+2] |  | > 100 | > 100 | > 100 | > 100 | > 100 | > 100 | > 100 | > 100 |  |  |  |  | 
O=C(O)C1CCCCN1CCc1c[nH]c2ccccc12 (centres undefined) | > 100 | > 100 | > 100 | > 100 | > 100 | > 100 | > 100 | > 100 | > 100 |  |  |  |  | 
Cc1ccc(CCCC(=O)O)cc1C | > 100 | > 100 | > 100 | > 100 | > 100 | > 100 | > 100 |  | > 100 |  |  |  |  | 
CC[n+]1c(/C=C/c2ccc(N(CCCl)CCCl)cc2)ccc2cc(Br)ccc21 |  | 18.4 |  | 482 |  | 0.936 |  | 9.09 | 14.7 |  |  | 162 | 86.2 | 1150
